{
  "source": "ChEMBL document CHEMBL1817566",
  "about": "“Halogen-substituted (C-β-D-glucopyranosyl)-hydroquinone regioisomers: synthesis, enzymatic evaluation and their binding to glycogen phosphorylase” (Bioorg Med Chem, 2011)",
  "target": "T1, Glycogen phosphorylase, muscle form (Oryctolagus cuniculus, UniProt P00489)",
  "T1 sequence (P00489 whole entry)": "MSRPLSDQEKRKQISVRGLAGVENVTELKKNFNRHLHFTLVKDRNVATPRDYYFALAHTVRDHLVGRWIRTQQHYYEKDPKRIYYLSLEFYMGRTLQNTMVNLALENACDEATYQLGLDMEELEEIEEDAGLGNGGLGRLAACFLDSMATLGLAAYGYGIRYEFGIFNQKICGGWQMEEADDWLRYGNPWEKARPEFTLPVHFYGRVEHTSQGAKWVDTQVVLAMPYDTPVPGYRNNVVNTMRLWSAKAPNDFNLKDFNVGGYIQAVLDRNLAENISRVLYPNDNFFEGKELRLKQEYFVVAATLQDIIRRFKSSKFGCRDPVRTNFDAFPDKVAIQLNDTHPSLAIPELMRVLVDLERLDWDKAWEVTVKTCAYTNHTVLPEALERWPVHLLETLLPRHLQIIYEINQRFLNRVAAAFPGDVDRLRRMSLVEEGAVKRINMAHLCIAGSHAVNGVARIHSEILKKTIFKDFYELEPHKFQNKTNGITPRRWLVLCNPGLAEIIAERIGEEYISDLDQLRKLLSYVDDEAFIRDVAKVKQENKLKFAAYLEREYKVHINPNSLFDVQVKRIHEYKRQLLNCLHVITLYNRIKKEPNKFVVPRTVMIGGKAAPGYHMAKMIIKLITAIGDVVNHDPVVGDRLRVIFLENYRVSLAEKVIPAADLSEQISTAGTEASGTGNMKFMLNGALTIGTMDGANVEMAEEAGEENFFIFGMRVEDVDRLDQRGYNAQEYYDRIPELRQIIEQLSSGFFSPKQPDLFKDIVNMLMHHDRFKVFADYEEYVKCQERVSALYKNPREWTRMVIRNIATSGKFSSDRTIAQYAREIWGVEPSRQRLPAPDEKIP",
  "assay": "Competitive inhibition of rabbit muscle glycogen phosphorylase b assessed as inorganic phosphate release using alphaD glucose-1-phosphate as substrate at pH 6.8 by spectrophotometric analysis",
  "design": "species or system Muscle tissue",
  "note": "pIC50, pKi: −log10 of the molar value.",
  "data": [
    {"smiles": "OC[C@H]1O[C@@H](c2cc(O)ccc2O)[C@H](O)[C@@H](O)[C@@H]1O", "values": [
      {"measurement": "pIC50", "result": 3.01},
      {"measurement": "pKi", "result": 3.05}
    ]},
    {"smiles": "OC[C@H]1O[C@@H](c2cc(O)cc(Cl)c2O)[C@H](O)[C@@H](O)[C@@H]1O", "values": [
      {"measurement": "pIC50", "result": 4.02}
    ]},
    {"smiles": "O=C1C=CC(=O)C([C@@H]2O[C@H](CO)[C@@H](O)[C@H](O)[C@H]2O)=C1", "values": [
      {"measurement": "pKi", "result": 2.89}
    ]}
  ]
}
